# In paper PMC8484168 (Cancer Chemotherapy and Pharmacology, 2021):
# Key:
# [1] = set-up: method as in PMID 29799676; conditions: all dosages 40–500 mg QD or 240–840 mg BID; cited from earlier work
# CYP3A = system: CYP3A; set-up: method as in PMID 30427584; conditions: patients with an advanced solid tumor; cited from earlier work
# [2] = Safety: TEAEs, Arm A (rucaparib + rosuvastatin); type: in vivo, human
# Method: (§1) Safety was assessed separately during the 3 treatment periods: before rucaparib dosing (day 1 to 5), rucaparib dosing alone (day 6 to 18), and rucaparib with and after probe drug (day 19 to 23). Safety and tolerability assessments were made based on adverse events (AEs), clinical laboratory results, vital signs, 12-lead electrocardiogram (ECG) measurements, body weight, physical examination, concomitant medication/procedures, and ECOG performance status. AEs were classified according to the Medical Dictionary for Regulatory Activities (MedDRA) classification system version 22.1 [17] and graded according to the Common Terminology Criteria for Adverse Events (CTCAE) version 4.03 [18].
# [3] = Safety: TEAEs, Arm B (rucaparib + oral contraceptives)
# Method: as §1
# [4] = system: breast cancer resistance protein (BCRP); set-up: method as in PMID 32129697; conditions: read-out: 50% inhibitory concentration (IC50) for BCRP; transfected cells; cited from earlier work
# [5] = Rucaparib steady-state trough plasma concentration (Cmin); type: in vivo, human; conditions: rucaparib 600 mg BID from day 5
# Text: This was a 2-part, phase 1, open-label, 2-arm DDI study in patients with advanced solid tumors. In Part 1 of the study, patients were screened for eligibility from day − 28 to − 2 and visited the study site from day − 1 to 23 (Fig. 1). […] To check steady-state plasma concentrations for rucaparib, a blood sample was collected prior to the dosing of rucaparib on days 5, 9, 11, 15, and 19–23.
# Other PK parameters, calculated for the probe drugs, included half-life (t1/2), tmax, apparent total clearance of drug after oral administration (CL/F), and apparent volume of distribution during terminal phase (VZ/F). The PK parameter calculated for rucaparib at steady state was trough plasma concentration (Cmin). PK parameters were calculated by noncompartmental analysis using Phoenix WinNonlin, version 8.1 (Certara, Princeton, NJ).
# CYP3A4 = system: CYP3A4; set-up: method as in PMID 32129697; conditions: human hepatocytes; cited from earlier work
# CYP3As = system: CYP3As; set-up: method as in PMID 32129697; conditions: human liver microsomes, reversible inhibition; cited from earlier work
structure (smiles),measurement,setting,value
CNCc1ccc(-c2[nH]c3cc(F)cc4c3c2CCNC4=O)cc1 [rucaparib],steady state of plasma rucaparib PK achieved by day,[1],≤ 8 days
same,inhibition of CYP3A at steady state,CYP3A,weakly inhibited
same,Abdominal distension,[2]; maximum severity 1,1 (5.9) n (%)
same,Abdominal pain,[2]; maximum severity 1,1 (5.9) n (%)
same,Blood creatinine increased,[2]; maximum severity 1,1 (5.9) n (%)
same,Diarrhea,[2]; maximum severity 1,2 (11.8) n (%)
same,Dyspepsia,[2]; maximum severity 1,1 (5.9) n (%)
same,Electrocardiogram QT prolonged,[2]; maximum severity 1,1 (5.9) n (%)
same,Gastrointestinal disorders,[2]; maximum severity 1,3 (17.6) n (%)
same,General disorders and administration site conditions,[2]; maximum severity 1,1 (5.9) n (%)
same,Infections and infestations,[2]; maximum severity 1,1 (5.9) n (%)
same,Investigations,[2]; maximum severity 1,2 (11.8) n (%)
same,Nasopharyngitis,[2]; maximum severity 1,1 (5.9) n (%)
same,Peripheral swelling,[2]; maximum severity 1,1 (5.9) n (%)
same,Reproductive system and breast disorders,[2]; maximum severity 1,0 n (%)
same,Total patients with events,[2]; maximum severity 1,5 (29.4) n (%)
same,Vaginal hemorrhage,[2]; maximum severity 1,0 n (%)
same,Vomiting,[2]; maximum severity 1,0 n (%)
same,Abdominal pain,[2]; maximum severity 2,1 (5.9) n (%)
same,Abdominal pain upper,[2]; maximum severity 2,1 (5.9) n (%)
same,Body temperature increased,[2]; maximum severity 2,0 n (%)
same,Cardiac disorders,[2]; maximum severity 2,1 (5.9) n (%)
same,Diarrhea,[2]; maximum severity 2,1 (5.9) n (%)
same,Dyspepsia,[2]; maximum severity 2,0 n (%)
same,Electrocardiogram QT prolonged,[2]; maximum severity 2,0 n (%)
same,Gastrointestinal disorders,[2]; maximum severity 2,3 (17.6) n (%)
same,General disorders and administration site conditions,[2]; maximum severity 2,2 (11.8) n (%)
same,Infections and infestations,[2]; maximum severity 2,1 (5.9) n (%)
same,Investigations,[2]; maximum severity 2,0 n (%)
same,Noncardiac chest pain,[2]; maximum severity 2,1 (5.9) n (%)
same,Peripheral swelling,[2]; maximum severity 2,1 (5.9) n (%)
same,Sinus tachycardia,[2]; maximum severity 2,1 (5.9) n (%)
same,Total patients with events,[2]; maximum severity 2,5 (29.4) n (%)
same,Urinary tract infection,[2]; maximum severity 2,1 (5.9) n (%)
same,Vomiting,[2]; maximum severity 2,1 (5.9) n (%)
same,Deep vein thrombosis,[2]; maximum severity 3,1 (5.9) n (%)
same,Total patients with events,[2]; maximum severity 3,1 (5.9) n (%)
same,Vascular disorders,[2]; maximum severity 3,1 (5.9) n (%)
same,Pulmonary embolism,[2]; maximum severity 4,1 (5.9) n (%)
same,"Respiratory, thoracic, and mediastinal disorders",[2]; maximum severity 4,1 (5.9) n (%)
same,Total patients with events,[2]; maximum severity 4,1 (5.9) n (%)
same,TEAEs considered related to rucaparib by the investigator,"[2]; rucaparib alone day 5 to 19, of 10 patients with TEAE",3
same,Pharyngitis bacterial,"[3]; Arm B, maximum severity 1",1 (5.6) n (%)
same,patients who experienced at least 1 TEAE,"[3]; female, human, in vivo",50.0%
same,patients with TEAEs considered related to rucaparib,"[3]; female, human, in vivo",7 patients
same,Abdominal discomfort,"[3]; human, in vivo",1 (5.6) n (%)
same,Abdominal pain,"[3]; human, in vivo",1 (5.6) n (%)
same,Accident,"[3]; human, in vivo",1 (5.6) n (%)
same,Acute kidney injury,"[3]; human, in vivo",1 (5.6) n (%)
same,Apathy,"[3]; human, in vivo",1 (5.6) n (%)
same,Arthropod bite,"[3]; human, in vivo",1 (5.6) n (%)
same,Ascites,"[3]; human, in vivo",1 (5.6) n (%)
same,Aspartate aminotransferase increased,"[3]; human, in vivo",1 (5.6) n (%)
same,Cerebrovascular accident,"[3]; human, in vivo",0 n (%)
same,Diarrhea,"[3]; human, in vivo",0 n (%)
same,Dysgeusia,"[3]; human, in vivo",2 (11.1) n (%)
same,Erythema,"[3]; human, in vivo",0 n (%)
same,General disorders and administration site conditions,"[3]; human, in vivo",1 (5.6) n (%)
same,Headache,"[3]; human, in vivo",1 (5.6) n (%)
same,Infections and infestations,"[3]; human, in vivo",1 (5.6) n (%)
same,"Injury, poisoning, and procedural complications","[3]; human, in vivo",1 (5.6) n (%)
same,Musculoskeletal and connective tissue disorders,"[3]; human, in vivo",1 (5.6) n (%)
same,Musculoskeletal pain,"[3]; human, in vivo",1 (5.6) n (%)
same,Nausea,"[3]; human, in vivo",1 (5.6) n (%)
same,Onycholysis,"[3]; human, in vivo",1 (5.6) n (%)
same,Peripheral swelling,"[3]; human, in vivo",1 (5.6) n (%)
same,Psychiatric disorders,"[3]; human, in vivo",1 (5.6) n (%)
same,Renal and urinary disorders,"[3]; human, in vivo",1 (5.6) n (%)
same,Skin and subcutaneous tissue disorders,"[3]; human, in vivo",1 (5.6) n (%)
same,Skin hemorrhage,"[3]; human, in vivo",1 (5.6) n (%)
same,Somnolence,"[3]; human, in vivo",1 (5.6) n (%)
same,Taste disorder,"[3]; human, in vivo",1 (5.6) n (%)
same,Thrombocytopenia,"[3]; human, in vivo",0 n (%)
same,IC50,[4],55 µM
same,days of continuous rucaparib dosing to steady state,[5],4 days
same,CYP3A4 mRNA expression,CYP3A4,down-regulated
same,CYP3A activities,CYP3A4,reduced
same,IC50,CYP3As,17.2 to 22.9 µM
